In data set [1] the test system is HBV. As to the kind of experiment: HepAD38 antiviral assay: reduction of viral product accumulation (virion DNA by qPCR, HBsAg or HBeAg by ELISA). The data set is classed as cell-based. The settings on record: Hepatitis B virus, 120 h; HepAD38 cells, five days after compound addition; 50% reduction of viral product accumulation relative to no drug controls; read-out: HepAD38 EC50. Summed up:
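Tetracycline-washed HepAD38 cells treated with compound (DMSO diluted 1:200) for 5 days, or 8 days with media and compound refreshed on d2 and d5. Virion DNA from lysates quantified by qPCR; HBsAg or HBeAg by ELISA. EC50 is the concentration giving 50% reduction versus no-drug controls, reported as ranges A<1 μM, B 1-10 μM, C>10 μM.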

A short description of data set [2]: Compound toxicity, ATPLite total ATP levels. Type of data set: cell-based. The conditions noted are these: human, HepAD38 cells; 15,000 cells/well, three days after compound addition; 50% reduction of total ATP levels relative to no drug controls. In outline: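 HepAD38 cells, washed free of tetracycline, seeded at 15,000 cells/well and given compound (DMSO stock diluted 1:200) for 3 days. Total ATP read by ATPLite; CC50 is the concentration cutting ATP by 50% versus no-drug controls, reported as ranges A>30 μM, B 10-30 μM, C<10 μM.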

For `O=S(=O)(NCCCO)c1cc(-c2nc(-c3ccc(Br)c(F)c3)c[nH]2)ccc1Cl` [Example 116], in data set [1], the half-maximal effective concentration (EC50) is less than 1 µM. In addition, the CC50 at 3 days in data set [2] was more than 30 µM.
As to `O=S(=O)(c1cc(-c2nc(-c3cccc(Cl)c3)c[nH]2)ccc1Cl)N1CCC(O)CC1` [Example 53], the EC50 in data set [1] was less than 1 µM. Further, in data set [2], the CC50 at 3 days was 10 to 30 µM.
For `O=S(=O)(c1cc(-c2nc(-c3ccccc3F)c[nH]2)ccc1Cl)N1CCC(O)CC1` [Example 68], in data set [1], the EC50 is 1 to 10 µM. In data set [2], the cytotoxic concentration (CC50) at 3 days is more than 30 µM.
For the compound `O=S(=O)(c1cc(-c2nc(-c3ccc(F)c(C(F)(F)F)c3)c[nH]2)ccc1Cl)N1CCC(O)CC1` [Example 55], the half-maximal effective concentration (EC50) in data set [1] was less than 1 µM. Also, the CC50 at 3 days in data set [2] was in the range of 10 to 30 µM.
In the case of `O=S(=O)(c1cc(-c2nc(-c3ccc(Br)c(F)c3)c[nH]2)ccc1Cl)N1CCCC(O)CC1` (stereo not shown) [Example 137], the half-maximal effective concentration (EC50) in data set [1] was less than 1 µM. The half-maximal cytotoxic concentration (CC50) at 3 days in data set [2] was more than 30 µM.
For the compound `O=S(=O)(c1cc(-c2nc(-c3cccc(OC(F)(F)F)c3)c[nH]2)ccc1Cl)N1CCC(O)CC1` [Example 95], the EC50 in data set [1] lay within 1 to 10 µM. For the same compound, the cytotoxic concentration (CC50) at 3 days in data set [2] was more than 30 µM.
Turning to `O=S(=O)(c1cc(-c2nc(-c3ccc(Br)c(F)c3)c[nH]2)ccc1Cl)N1CCCC(O)C1` (stereo not shown) [Example 110], the EC50 in data set [1] was less than 1 µM. In data set [2], this compound gave a CC50 at 3 days of more than 30 µM.
The matching figures for `CN(CCO)S(=O)(=O)c1cc(-c2nc(-c3ccc(Br)c(F)c3)c[nH]2)ccc1Cl` [Example 104]: less than 1 µM and 10 to 30 µM.
The matching figures for `Cc1cc(F)ccc1-c1c[nH]c(-c2ccc(Cl)c(S(=O)(=O)N3CCC(O)CC3)c2)n1` [Example 67]: 1 to 10 µM and 10 to 30 µM.
For `CC(C)OC(=O)[C@@H](C)NS(=O)(=O)c1cc(-c2ncc(-c3ccc(F)c(Br)c3)[nH]2)ccc1Cl` [Example 41], the concentration for a half-maximal effect (EC50) in data set [1] is 1 to 10 µM. In data set [2], this compound had a CC50 at 3 days of more than 30 µM.
Take `O=S(=O)(c1cc(-c2ncc(-c3ccccc3)[nH]2)ccc1Cl)N1CCC(O)CC1` [Example 11]: in data set [1], the half-maximal effective concentration (EC50) fell in the range of 1 to 10 µM. Moreover, the 50% cytotoxic concentration (CC50) at 3 days in data set [2] is more than 30 µM.

Values taken from patent US10442788B2, “Hepatitis B antiviral agents” (ENANTA PHARMACEUTICALS, INC., priority 2015, dated 2019).
